Read-outs that look alike come from different tables or passages of the source.
Assays:
[1] = remark: listed apart in the source
Experimental: A method for testing the density and the tapped density included: (1) a certain mass of to-be-assessed sample was placed into a 5 mL measuring cylinder, and the volume at this moment was recorded. The bulk density was calculated by dividing the mass of the sample by the volume at this moment. (2) The measuring cylinder was slightly tapped 200 times, the final volume was recorded, and the tapped density was calculated by dividing the mass of the sample by the final volume. (3) Three parallel tests were conducted. A method for testing the angle of repose included: (1) a funnel was fixed vertically to a bottom surface, and the material was slowly placed into the funnel. (2) A well-proportioned cone of the material was formed on the bottom surface. The height and bottom surface diameter of the cone were measured. (3) Three parallel tests were conducted.

[2] = Pharmacokinetics of free crystal form A in Beagle dogs; type: in vivo; conditions: for MRT last: read-out: MRT0-t; for bioavailability: from average AUC0-t after dose correction, read-out: F (oral bioavailability)
Experimental: All the animals in this experiment were randomly divided into 4 groups (3 dogs/sex/group). The animals in the group A, the group B, and the group D were fasted before administration, and the animals in the group C were fasted before the first administration and the last administration. All the animals were fasted for at least 12 h before administration, and food was resumed 4 h after administration. All the animals had free access to water and food during the experiment. The animals in the group A were intravenously injected with the drug at 2 mg/kg, and blood samples were collected from the jugular vein before and 0.033 […], and 24 h after administration. The animals in the group B and the group D received single intragastric administration of the drugs at 2 mg/kg and 20 mg/kg, respectively, and blood samples were collected from the jugular vein before and 0.083 […], and 24 h after administration. […] Blood samples were collected from the jugular vein before the first administration and the seventh administration and 0.083 […], and 24 h after administration. Blood samples were collected from the jugular vein before administration and 0.5 h after administration from the second administration to the sixth administration. The sample collected before the second administration was the sample collected 24 h after the first administration. The blood samples from the animals were collected through the jugular vein, with a blood sample volume of 0.5 mL/time. All collected whole blood samples were placed in centrifuge tubes containing ethylene diamine tetraacetic acid potassium salt (EDTA-K2), and the centrifuge tubes were turned upside down to allow the anticoagulant and blood to be fully mixed. All the samples were placed on wet ice before centrifugation and centrifuged at 1524 g for 10 min to separate plasma. The plasma samples were transferred to new centrifuge tubes and stored at -90° C. to […] until analysis. The drug concentration in the plasma of each Beagle dog was determined by liquid chromatography with tandem mass spectrometry (LC-MS/MS). The obtained plasma concentration data was analyzed by using the pharmacokinetic processing software WinNonlin 8.0 with a non-compartmental model to calculate relevant pharmacokinetic parameters.

[3] = both sexes, Beagle, dog, plasma, po, 2 mg/kg, i.g. 2 mg/kg single, male/female mean
[4] = both sexes, Beagle, dog, plasma, po, 6 mg/kg, i.g. 6 mg/kg once a day, seventh administration, male/female mean
[5] = both sexes, Beagle, dog, plasma, po, 6 mg/kg, i.g. 6 mg/kg, first administration, male/female mean
[6] = both sexes, Beagle, dog, plasma, po, 20 mg/kg, i.g. 20 mg/kg single, male/female mean
[7] = both sexes, Beagle, dog, plasma, po, i.g. 2 mg/kg single, male/female mean
[8] = both sexes, Beagle, dog, plasma, po, i.g. 6 mg/kg once a day, seventh administration, male/female mean
[9] = both sexes, Beagle, dog, plasma, po, i.g. 6 mg/kg, first administration, male/female mean
[10] = both sexes, Beagle, dog, plasma, po, i.g. 20 mg/kg single, male/female mean
[11] = both sexes, beagle, dog, plasma, iv, 2 mg/kg, i.v. 2 mg/kg, male and female, mean
[12] = both sexes, beagle, dog, plasma, iv, i.v. 2 mg/kg, male and female, mean

CC[S@@](=N)(=O)C[C@H]1CC[C@H](N(C)c2ncnc3[nH]ccc23)CC1 [Free crystal form A]
UPLC peak Area, RRT 1.00 (25° C./60% RH/4 weeks): 99.71% | UPLC peak Area, RRT 1.47 (25° C./60% RH/4 weeks): 0.06% | UPLC peak Area, RRT 1.63 (25° C./60% RH/4 weeks): 0.05% | UPLC peak Area, RRT 2.10 (25° C./60% RH/4 weeks): 0.10% | UPLC peak Area, RRT 2.94 (25° C./60% RH/4 weeks): 0.07% | Crystal form Transform (25° C./60% RH/4 weeks, open): No | Purity (25° C./60% RH/4 weeks, open): 99.71 area % | UPLC peak Area, RRT 1.00 (40° C./75% RH/4 weeks): 99.72% | UPLC peak Area, RRT 1.47 (40° C./75% RH/4 weeks): 0.06% | UPLC peak Area, RRT 1.63 (40° C./75% RH/4 weeks): 0.05% | UPLC peak Area, RRT 2.10 (40° C./75% RH/4 weeks): 0.10% | UPLC peak Area, RRT 2.94 (40° C./75% RH/4 weeks): 0.07% | Crystal form Transform (40° C./75% RH/4 weeks, open): No | Purity (40° C./75% RH/4 weeks, open): 99.72 area % | UPLC peak Area, RRT 1.47 (80° C./1 d): 0.06% | UPLC peak Area, RRT 1.63 (80° C./1 d): 0.05% | UPLC peak Area, RRT 2.10 (80° C./1 d): 0.10% | UPLC peak Area, RRT 2.94 (80° C./1 d): 0.08% | Crystal form Transform (80° C./1 d, closed): No | UPLC peak Area, RRT 1.47 (Starting): 0.05% | UPLC peak Area, RRT 1.63 (Starting): 0.05% | UPLC peak Area, RRT 2.10 (Starting): 0.10% | UPLC peak Area, RRT 2.94 (Starting): 0.07% | flowability ([1]; conclusion from Carr index and angle of repose): high flowability | Bulk density ([1]; single tests 1 to 3): 0.11 g/mL | Tapped density ([1]; single tests 1 to 3, tapped 200 times): 0.23 g/mL | Average bulk density ([1]; three parallel tests): 0.11 g/mL | Average tapped density ([1]; three parallel tests, tapped 200 times): 0.23 g/mL | AUC(0-t) [2, 3]: 8750 ng·h/mL | MRT last [2, 3]: 5.37 h | AUC(0-t) [2, 4]: 26600 ng·h/mL | MRT last [2, 4]: 5.12 h | AUC(0-t) [2, 5]: 30000 ng·h/mL | MRT last [2, 5]: 5.49 h | AUC(0-t) [2, 6]: 101000 ng·h/mL | MRT last [2, 6]: 5.2 h | bioavailability ([2]; both sexes, Beagle, dog, plasma, po, i.g. 2 mg/kg single): 88% | Cmax [2, 7]: 1350 ng/mL | Tmax [2, 7]: 1.33 h | half-life [2, 7]: 3.89 h | Cmax at 7 days [2, 8]: 4540 ng/mL | Tmax at 7 days [2, 8]: 0.75 h | half-life at 7 days [2, 8]: 4.1 h | bioavailability ([2]; both sexes, Beagle, dog, plasma, po, i.g. 6 mg/kg, first administration): 100% | Cmax [2, 9]: 4710 ng/mL | Tmax [2, 9]: 0.958 h | half-life [2, 9]: 4.2 h | bioavailability ([2]; both sexes, Beagle, dog, plasma, po, i.g. 20 mg/kg single): 101% | Cmax [2, 10]: 13300 ng/mL | Tmax [2, 10]: 0.792 h | half-life [2, 10]: 4.17 h | AUC(0-t) [2, 11]: 9940 ng·h/mL | MRT last [2, 11]: 4.3 h | C0 [2, 12]: 4250 ng/mL | clearance [2, 12]: 3.4 mL/min/kg | half-life [2, 12]: 3.68 h | Vd ([2]; both sexes, beagle, dog, plasma, iv, i.v. 2 mg/kg, male and female, mean, read-out: VdSS): 0.939 L/kg | drug accumulation ([2]; i.g. 6 mg/kg for 7 consecutive days): No significant drug accumulation | male-to-female ratio of AUC0-t ([2]; i.v. 2 mg/kg): 0.748 | male-to-female ratio of C0 ([2]; i.v. 2 mg/kg): 0.758 | clinical observation ([2]; i.v. 2 mg/kg, i.g. 2, 6, 20 mg/kg, before and after administration and blood sampling): no obvious abnormalities were found
